Laboratory results from patent US8242144B2, “Stilbenes and chalcones for the prevention and treatment of cardiovascular diseases” (Resverlogix Corp., priority 2004, dated 2012).

What was measured:
[1] = Caco-2 permeability (in vitro Caco-2 intestinal transport model); format: in vitro ADME, human; details: human, Caco-2
From the text: (§1) The Caco-2 cell drug transport model is widely used for screening compounds in drug discovery to assess intestinal transport and predict absorption rates. […] Sun et al., “In vitro testing of drug absorption for drug ‘developability’ assessment: forming an interface between in vitro preclinical data and clinical outcome,” Curr. Opin. Drug Discov. Devel.

human ApoA-I promoter [2] = assay: ApoA-I promoter induction in Caco-2 intestinal cells (pAI.474-Luc luciferase reporter); format: cell-based; details: Caco-2 cells, luciferase activity vs untreated/control, average values at 15 μM, 48 hours incubation
Method: Briefly, the promoter region of the gene encoding human ApoA-I was isolated and ligated upstream of the firefly luciferase gene to construct the reporter plasmid pAI.474-Luc. This reporter plasmid and pRSV-β-galactosidase (as a control for transfection efficiency) were co-transfected to Caco-2 cells. The Caco-2 cells were then incubated in a MEM selection media containing 20% fetal calf serum supplemented with G418 (final concentration: 0.5 mg/mL, Gibco) to give established strains that stably express from the reporter gene. […] Cells were starved for 24 hrs in MEM selection media containing 0.5% FBS. Then, a solution of a compound of the invention in DMSO or other appropriate solvent was added to the wells at a final concentration of 0 to 100 μM in MEM selection media containing 0.5% FBS.
Measures of luciferase activity were normalized to lysate protein concentrations, measured using Bradford Reagent (BioRad Protein Assay reagent Cat#500-0006). The luciferase activity of cells treated with various concentrations of test compounds was compared to that of control sample (i.e., solvent without any compound of the present invention added) and untreated samples.

human ApoA-I promoter [3] = assay: ApoA-I promoter induction in HepG2 liver cells (pAI.474-Luc luciferase reporter); format: cell-based; details: luciferase activity vs untreated/control, average values at 15 μM, 48 hours incubation
Method: This study determined whether compounds of the invention have an effect on ApoA-I promoter activity expression in HepG2 cells, a liver cell line. Cells were grown under conditions recommended by the ATCC and summarized by Wong.
The promoter region of the gene encoding human ApoA-I was isolated and ligated upstream the structure gene of firefly luciferase to construct a reporter plasmid (pAI.474-Luc). The reporter plasmid, along with pRSV-β-galactosidase (as a control for transfection efficiency) were co-transfected into HepG2 cells. The cells were then incubated in an MEM selection medium containing 20% fetal calf serum supplemented with G418 (final concentration: 0.5 mg/mL, Gibco) to give established strains that stably express from the reporter gene. The strains were seeded to a 6-well culture plates and incubated for 48 hours at 37° C. under 5% carbon dioxide. Cells were starved for 24 hrs in MEM selection media containing 0.5% FBS. Then, a solution of the compounds of the invention in DMSO (or other appropriate solvent) was added to the wells at a final concentration of 0 to 100 μM in MEM selection media containing 0.5% FBS.
After further incubation for 48 hours, the cells were harvested and lysed using Reporter Lysis Buffer (PROMEGA E3971), and 50 μL of luciferase assay reagent (PROMEGA E4550 Luciferase Reporter 1000 assay system) were added to measure luciferase activity with a luminometer (Fluoroskan Ascent FL from Thermo electron Corporation). Measures of luciferase activity were normalized to lysate protein concentrations, measured using Bradford Reagent (Biorad Protein Assay reagent Cat#500-0006).

Caco-2 cells = assay: Caco-2 permeability (in vitro Caco-2 intestinal transport model); format: in vitro ADME, human; details: in vitro Caco-2 intestinal transport model
From the text: as §1

human ApoA-I promoter [4] = details: Caco-2 cells, reported by Wong; cited from earlier work

melting point | Structure (SMILES) | ApoA-I Promoter Induction (human ApoA-I promoter [2]) | further results
223 to 225 °C | OCc1cc(O)ccc1/C=C/c1ccc(O)cc1 [Example 4, 3-Hydroxymethyl-4-[(E)-2-(4-hydroxy-phenyl)-vinyl]-phenol] | increased | Papp [1]: 1.79 ×10⁻⁶ cm/s
 | COc1ccc(/C=C/C(=O)c2ccccc2)cc1 [4-Methoxy-chalcone] | increased | 
 | O=C(/C=C/c1ccc(O)cc1)c1ccc(O)cc1O [4,2′,4′-Trihydroxy-chalcone] | increased | 
 | COc1ccc(C(=O)/C=C/c2ccc(O)cc2O)cc1 [2,4-Dihydroxy-4′-methoxy-chalcone] | increased | 
 | Oc1ccc(CCc2ccc(O)cc2)cc1 [Example 17, 4-[4-Hydroxy-phenethyl]-phenol] | increased | ApoA-I Promoter Induction (human ApoA-I promoter [3]): increased
229 to 232 °C | Nc1cc(O)ccc1/C=C/c1ccc(O)cc1 [Example 10, 3-Amino-4-[(E)-2-(4-hydroxy-phenyl)vinyl]phenol] | increased | 
 | O=C(/C=C/c1ccc(O)cc1)c1ccccc1 [4-Hydroxy-chalcone] | increased | 
 | O=C(Oc1ccccn1)c1ccc(O)cc1 [Example 20, 4-Hydroxy-benzoic acid pyridin-2-yl ester] |  | Papp [1]: 2 ×10⁻⁶ cm/s
244 to 245 °C | CS(=O)(=O)c1cc(O)ccc1/C=C/c1ccc(O)cc1 [Example 9, 4-[(E)-2-(4-Hydroxyphenyl)vinyl]-3-methanesulfonylphenol] |  | 
 | Oc1ccc(/C=C/c2ccc(O)cc2)cc1 [4,4′-dihydroxy-stilbene] | increased | ApoA-I Promoter Induction (human ApoA-I promoter [3]): increased
 | Oc1ccc(/N=N/c2ccc(O)cc2)cc1 [Example 21, 4-(4-Hydroxy-phenyl)-azophenol] |  | Papp [1]: 8.73 ×10⁻⁶ cm/s
 | O=S(=O)(Nc1ccc(O)cc1)c1ccc(O)cc1 [Example 19, 4-Hydroxy-N-(4-hydroxyphenyl)-benzenesulfonamide] | increased | 
241 to 243 °C | O=C(O)c1cc(/C=C/c2ccc(O)cc2)ccc1O [Example 5, 2-Hydroxy-5-[(E)-2-(4-hydroxyphenyl)vinyl]benzoic acid] | no | 
 | CCCO [Propanol, reference compound] |  | % Transported Paap (Caco-2 cells): 10.1 ×10⁻⁶ cm/s
192 to 194 °C | COc1cc(O)ccc1/C=C/c1ccc(O)cc1 [Example 3, 4-[(E)-2-(4-Hydroxy-phenyl)-vinyl]-3-methoxy-phenol] | increased | ApoA-I Promoter Induction (human ApoA-I promoter [3]): increased
237 to 240 °C | O=[N+]([O-])c1cc(O)ccc1/C=C/c1ccc(O)cc1 [Example 6, 3-Nitro-4-[(E)-2-(4-hydroxyphenyl)-vinyl]phenol] | increased | ApoA-I Promoter Induction (human ApoA-I promoter [3]): increased; Papp [1]: 1.95 ×10⁻⁶ cm/s
 | Oc1ccc(/C=C/c2cc(O)cc(O)c2)cc1 [resveratrol] |  | stimulation of ApoA-I promoter activity at 4, 8, 16 and 24 hours following administration (human ApoA-I promoter [4]): significant stimulation
183.5 to 187.7 °C | CN(C)C(=O)c1cc(O)ccc1/C=C/c1ccc(O)cc1 [Example 12, 5-Hydroxy-2-[2-(4-hydroxyphenyl)vinyl]-N,N-dimethyl-benzamide] | increased | 
 | Oc1ccc(/C=C/c2cc(O)cc(O)c2)cc1 [Example 1, Resveratrol] | increased | ApoA-I Promoter Induction (human ApoA-I promoter [3]): increased
269 to 271 °C | CCOC(=O)c1cc(/C=C/c2ccc(O)cc2)ccc1O [Example 7, (E)-Ethyl 2-hydroxy-5-(4-hydroxystyryl) benzoate] | increased | 
272 to 274 °C | NC(=O)c1cc(/C=C/c2ccc(O)cc2)ccc1O [Example 8, (E)-2-Hydroxy-5-(4-hydroxystyryl)benzamide] | increased | 
227 to 229 °C | CC(=O)Nc1cc(O)ccc1/C=C/c1ccc(O)cc1 [Example 11, N-{5-Hydroxy-2-[(E)-2-(4-hydroxyphenyl)vinyl]phenyl}-acetamide] |  | 
 | Oc1ccc(/C=C/c2ccc(O)nc2)cc1 [Example 2, 5-[(E)-2-(4-Hydroxy-phenyl)-vinyl]-pyridin-2-ol] | increased | 
